Results on 14 compounds are retold here after patent US9518065B2, “IRAK inhibitors and uses thereof” (NIMBUS IRIS, INC., priority 2013, dated 2016).

For assay [1], the target named is T1, IRAK4 (Homo sapiens, UniProt Q9NWZ3).
T1 construct: purchased CARNA Bioscience 09-145
T1 sequence (Q9NWZ3 1-460): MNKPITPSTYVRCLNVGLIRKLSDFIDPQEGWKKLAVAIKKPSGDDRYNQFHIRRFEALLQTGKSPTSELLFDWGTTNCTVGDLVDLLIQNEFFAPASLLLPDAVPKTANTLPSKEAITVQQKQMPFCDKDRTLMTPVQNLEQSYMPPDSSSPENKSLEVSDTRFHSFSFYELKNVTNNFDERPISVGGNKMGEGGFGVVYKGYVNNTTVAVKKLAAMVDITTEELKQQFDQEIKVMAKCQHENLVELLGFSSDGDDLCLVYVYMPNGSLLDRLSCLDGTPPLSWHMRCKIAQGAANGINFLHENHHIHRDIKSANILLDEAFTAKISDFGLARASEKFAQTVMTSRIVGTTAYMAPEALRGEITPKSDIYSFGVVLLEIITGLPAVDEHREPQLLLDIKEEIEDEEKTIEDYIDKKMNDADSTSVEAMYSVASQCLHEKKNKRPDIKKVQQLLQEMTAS
The experiment in a line: IRAK-4 activity inhibition assay (Caliper). The assay is classed as biochemical. The note with it: 3.5 nM IRAK4, 37 μM ATP, 1.5 μM Peptide 8. On the procedure: A 1× kinase base buffer was prepared from 50 mM HEPES, pH 7.5 and 0.0015% Brij-35. A stop buffer was prepared from 100 mM HEPES, pH 7.5, 0.015% Brij-35, 0.2% Coating Reagent #3, and 50 mM EDTA.
Test compound was diluted to 50× of the final desired highest inhibitor concentration in reaction by 100% DMSO. 100 ul of this compound dilution was transferred to a well in a 96-well plate. For example, if desired highest inhibitor concentration in IC50 determination is 100 uM, then prepare 5000 uM of compound DMSO solution in this step.
Test compound was serially diluted by transferring 30 μl to 60 μl of 100% DMSO in the next well and so forth for a total of 10 concentrations. 100 μl of 100% DMSO was added to two empty wells for no compound control and no enzyme control in the same 96-well plate.
A new 96-well plate was marked as intermediate plate. 5 μl of compound serial dilution was transferred from source plate to the corresponding wells of the intermediate plate. 45 μl of 1× kinase base buffer (KB buffer) was added to each well of the intermediate plate. The intermediate plate was placed for 10 min on a shaker.
5 μl of each well was transferred from the 96-well intermediate plate to a 384-well plate in duplicates. For example, A1 of the 96-well plate is transferred to A1 and A2 of the 384-well plate. A2 of the 96-well plate is transferred to A3 and A4 of the 384-well plate, and so on.
IRAK4 and DTT in 1× kinase base buffer was added. The 2.5× enzyme mix contained 8.8 nM IRAK4 and 5 mM DTT.
Peptide 8, ATP, MgCl2 and MnCl2 were added in the 1× kinase base buffer. The 2.5× peptide mix contained 3.75 μM peptide 8, 92.5 μM ATP, 12.5 mM MgCl2 and 2.5 mM MnCl2.
Assay plate already contained 5 μl of compound in 10% DMSO. Added 10 μl of 2.5× enzyme solution to each well of the 384-well assay plate, except no enzyme control wells. The final concentration of IRAK4 in reaction was 3.5 nM. Added 10 μl of 1× kinase base buffer to no enzyme control wells in the assay plate. Incubated at room temperature for 10 min.
Added 10 μl of 2.5× peptide solution to each well of the 384-well assay plate. The final concentration of Peptide 8 and ATP was 1.5 μM and 37 μM, respectively. Incubated at 28° C. for 40 minutes. Added 25 μl of stop buffer to stop reaction. Collected data on Caliper.
Copied conversion % data from Caliper program. Converted conversion % values to percent inhibition values. Percent inhibition=(max-conversion %)/(max-min)*100, where “max” means the conversion % of DMSO control and “min” means the conversion % of no enzyme control.
The compound numbers correspond to the compound numbers in Table 1. Compounds having an activity designated as “A” provided an IC50≦1 μM; compounds having an activity designated as “B” provided an IC50 of 1-5 μM; compounds having an activity designated as “C” provided an IC50 of ≧5 μM. “NA” stands for “not assayed.”

Assay [2] has as its system TNFα and IL8 production in THP-1 cells. The assay is described as follows: LPS induced cytokine (TNFα and IL8) production assay in THP-1 cells. The assay is classed as cell-based. The note with it: Homo sapiens, 300 ng/mL LPS. On the procedure:
Provided compounds were also assayed in an LPS (Lipopolysacharide) or R848 (TLR-7 agonist) induced cytokine (TNFα and IL8) production assay in THP-1 cells, human white blood cells (hWBC), and whole blood. The exemplary protocol for this assay in THP-1 cells was as follows below.
THP-1 cells from ATCC (TIB-202) were cultured in RPMI Medium 1640 (Invitrogen, Cat No. A10491-01), 10% fetal bovine serum (Invitrogen, Cat No. 10099141, Lot No. 8172882) containing 100 U/mL Penicillin, 100 μg/mL streptomycin (Invitrogen, Cat No. 15140-122), and 50 uM 2-Mercaptoethanol (Invitrogen, Cat No. 21985023). LPS-EK ultra pure (Invivogen, Cat No. tlrl-peklps) was used to induce IL8 and TNFα production, that was detected in the cell culture supernatant by IL8 HTRF kit (Cisbio, Cat No. 62IL8PEB) and TNFα HTRF kit (Cisbio, Cat No. 62TNFPEB), as per manufacturer instructions. Cells were cultured in 96 well assay plates at 100,000 cells per well, and compounds diluted in final 0.3% DMSO were pre-incubated with cells for 1 hour prior to stimulation with 300 ng/mL LPS. Cytokine production in cell supernatant was measured at 5 hours for TNFα and IL8 production, and for 16 hours for IL8 production and assessment of cell viability.
The compound numbers correspond to the compound numbers in Table 1. […] “NA” stands for “not assayed.”

Setting [3] is: 5 hours, read-out: TNFα production IC50.
[4] abbreviates: 16 hours, read-out: IL8 (16 h) production IC50.

Molecules are shown by their SMILES. Where two headings read alike, the source gives them in different places. Bounds are passed on as bounds.

As to `CCc1nc2c(N[C@H]3CC[C@H](N4CCOCC4)CC3)nc(Nc3cnn(CCO)c3)nc2s1` [Compound I-29, 2-(4-((2-ethyl-7-(((1r,4r)-4-morpholinocyclohexyl)-amino)thiazolo[5,4-d]pyrimidin-5-yl)amino)-1H-pyrazol-1-yl)ethan-1-ol], the results for the IC50 in assay [1], in assay [2] (setting [3]) and in assay [2] (setting [4]) were not above 1000 nM, not below 500 nM and not above 250 nM, respectively.
For `CCc1nc2c(N[C@H]3CC[C@H](N4CCC5(CC4)CC5)CC3)nc(Nc3cnn(C)c3)nc2s1` [Compound I-21, N7((1r,4r)-4-(6-azaspiro[2.5]octan-6-yl)cyclohexyl)-2-ethyl-N5-(1-methyl-1H-pyrazol-4-yl)thiazolo[5,4-d]pyrimidine-5,7-diamine] the same measures were not above 1000 nM, not above 250 nM and not above 250 nM.
On to `CCc1nc2c(N[C@H]3CC[C@H](N4CCOCC4)CC3)nc(Nc3cnn(CC4CCOCC4)c3)nc2s1` [Compound I-18, 2-ethyl-N7-((1r,4r)-4-morpholinocyclohexyl)-N5-(1-((tetrahydro-2H-pyran-4-yl)methyl)-1H-pyrazol-4-yl)thiazolo[5,4-d]pyrimidine-5,7-diamine], for which the IC50 was not above 1000 nM in assay [1], not above 250 nM in assay [2] (setting [3]) and not above 250 nM in assay [2] (setting [4]).
For `Cc1nc2c(N[C@H]3CC[C@H](N4CCOCC4)CC3)nc(Nc3cnn(C4CCOCC4)c3)nc2s1` [Compound I-25, 2-methyl-N7-((1r,4r)-4-morpholinocyclohexyl)-N5-(1-(tetrahydro-2H-pyran-4-yl)-1H-pyrazol-4-yl)thiazolo[5,4-d]pyrimidine-5,7-diamine], the IC50 in assay [1] is not above 1000 nM; in assay [2] (setting [3]) it was not above 250 nM; in assay [2] (setting [4]), not above 250 nM.
In the case of `CCc1nc2c(N[C@H]3CC[C@H](N4CCC5(CC4)CC5)CC3)nc(Nc3cnn(C4CCOCC4)c3)nc2s1` [Compound I-23, N7-((1r,4r)-4-(6-azaspiro[2.5]octan-6-yl)cyclohexyl)-2-ethyl-N5-(1-(tetrahydro-2H-pyran-4-yl)-1H-pyrazol-4-yl)thiazolo[5,4-d]pyrimidine-5,7-diamine], the IC50 was not above 1000 nM in assay [1], 250 to 500 nM in assay [2] (setting [3]) and not above 250 nM in assay [2] (setting [4]).
For `Cn1cc(Nc2nc(N[C@H]3CC[C@H](N4CCOCC4)CC3)c3nc(CO)sc3n2)cn1` [Compound I-37, (5-((1-methyl-1H-pyrazol-4-yl)amino)-7-(((1r,4r)-4-morpholino-cyclohexyl)amino)thiazolo[5,4-d]pyrimidin-2-yl)methanol] the same measures were not above 1000 nM, not below 500 nM and not below 500 nM.
For `Cc1nc2c(N[C@H]3CC[C@H](N4CCOCC4)CC3)nc(Nc3cnn(CCS(C)(=O)=O)c3)nc2s1` [Compound I-40, 2-methyl-N5-(1-(2-(methylsulfonyl)ethyl)-1H-pyrazol-4-yl)-N7-((1r,4r)-4-morpholinocyclohexyl)thiazolo[5,4-d]pyrimidine-5,7-diamine] the same measures were not above 1000 nM, not above 250 nM and 250 to 500 nM.
For the compound `Cc1nc2c(N[C@H]3CC[C@H](N4CCOCC4)CC3)nc(Nc3cnn(CCCS(C)(=O)=O)c3)nc2s1` [Compound I-38, 2-methyl-N5-(1-(3-(methylsulfonyl)propyl)-1H-pyrazol-4-yl)-N7-((1r,4r)-4-morpholinocyclohexyl)thiazolo[5,4-d]pyrimidine-5,7-diamine], the results for the concentration for half-maximal inhibition (IC50) in assay [1], in assay [2] (setting [3]) and in assay [2] (setting [4]) were not above 1000 nM, not below 500 nM and 250 to 500 nM, respectively.
As to `CCc1nc2c(N[C@H]3CC[C@H](N4CCOCC4)CC3)nc(Nc3cnn(CCOC)c3)nc2s1` [Compound I-34, 2-ethyl-N5-(1-(2-methoxyethyl)-1H-pyrazol-4-yl)-N7-((1r,4r)-4-morpholinocyclohexyl)thiazolo[5,4-d]pyrimidine-5,7-diamine], the IC50 is not above 1000 nM in assay [1], not above 250 nM in assay [2] (setting [3]) and not above 250 nM in assay [2] (setting [4]).
With `CCc1nc2c(N[C@H]3CC[C@H](N4CCC5(CC4)CC5)CC3)nc(Nc3cnn(CCOCCO)c3)nc2s1` [Compound I-33, 2-(2-(4-((7-(((1r,4r)-4-(6-azaspiro[2.5]octan-6-yl)cyclohexyl)-amino)-2-ethylthiazolo[5,4-d]pyrimidin-5-yl)amino)-1H-pyrazol-1-yl)ethoxy)ethan-1-ol], the values for the IC50 in assay [1], in assay [2] (setting [3]) and in assay [2] (setting [4]) were not above 1000 nM, not above 250 nM and not above 250 nM, respectively.
Regarding `CCc1nc2c(N[C@H]3CC[C@H](N4CCC(O)CC4)CC3)nc(Nc3cnn(C)c3)nc2s1` [Compound I-17, 1-((1r,4r)-4-((2-ethyl-5-((1-methyl-1H-pyrazol-4-yl)amino)-thiazolo[5,4-d]pyrimidin-7-yl)amino)cyclohexyl)piperidin-4-ol], the IC50 in assay [1] was not above 1000 nM; in assay [2] (setting [3]) it was not above 250 nM.
Regarding `CCc1nc2c(N[C@H]3CC[C@H](N4CCOCC4)CC3)nc(Nc3cnn(C4CCS(=O)(=O)CC4)c3)nc2s1` [Compound I-10, 4-(4-((2-ethyl-7-(((1r,4r)-4-morpholino-cyclohexyl)amino)-thiazolo[5,4-d]pyrimidin-5-yl)amino)-1H-pyrazol-1-yl)tetrahydro-2H-thiopyran 1,1-dioxide], the values for the IC50 in assay [1], in assay [2] (setting [3]) and in assay [2] (setting [4]) were not above 1000 nM, not above 250 nM and not above 250 nM, respectively.
On to `CCc1nc2c(N[C@H]3CC[C@H](N4CCC5(CC4)COC5)CC3)nc(Nc3cnn(C)c3)nc2s1` [Compound I-13, N7-((1r,4r)-4-(2-oxa-7-azaspiro[3.5]nonan-7-yl)cyclohexyl)-2-ethyl-N5-(1-methyl-1H-pyrazol-4-yl)thiazolo[5,4-d]pyrimidine-5,7-diamine], for which the results for the IC50 in assay [1], in assay [2] (setting [3]) and in assay [2] (setting [4]) were not above 1000 nM, not above 250 nM and not above 250 nM, respectively.
Take `CCc1nc2c(N[C@H]3CC[C@H](N4CCOCC4)CC3)nc(Nc3cnn(CCOCCO)c3)nc2s1` [Compound I-28, 2-(2-(4-((2-ethyl-7-(((1r,4r)-4-morpholinocyclohexyl)amino)thia-zolo[5,4-d]pyrimidin-5-yl)amino)-1H-pyrazol-1-yl)ethoxy)ethan-1-ol]: the IC50 in assay [1] is not above 1000 nM; in assay [2] (setting [3]), 250 to 500 nM; in assay [2] (setting [4]), not above 250 nM.
